# Assays:
# [1] = test system: mRNA levels of potential targets; assay: PCR array using real-time PCR (mRNA levels); conditions: mRNA level
# Description: Tables 11 and 12 illustrate PCR array data using real-time PCR to track mRNA levels for various potential targets of compound BX.
# rats [2] = assay: Water maze, spatial memory and learning in lithium-pilocarpine treated rats; format: in vivo; conditions: pilocarpine-induced SE rats
# Experimental: To assess spatial memory and learning in lithium-pilocarpine treated animals and to identify novel compounds that might ameliorate cognitive deficits and neuronal loss, rats were tested for their ability to navigate a water maze and find a submerged escape platform based only on their ability to remember and assess only extra maze visual cues. Learning can be assessed by quantifying the time that an animal takes to find the platform (latency) over a number of independent trials. Further, this model is sensitive to the hippocampal damage associated with pilocarpine-induced status epilepticus (SE).
# hippocampal neurons = assay: Hippocampal cell loss after pilocarpine-induced SE (FluoroJade B); format: in vivo; conditions: given 30 minutes after the first stage 3 convulsive seizure
# Description: Pilocarpine-induced SE results in marked cell loss in the hippocampus, when compared to the naïve vehicle-treated rats, as evidenced by increased FluoroJade B fluorescence in the dentate gyrus (DG), CA1, and CA3 cell layers.
# [3] = test system: dopaminergic neurons of striatum and Substantia Nigra pars compacta; assay: MPTP-treated mice, immunohistochemical analysis (tyrosine hydroxylase); format: in vivo; conditions: two weeks of oral treatment
# Experimental: FIGS. 28A and 28B illustrate immunohistochemical analysis of the brains of mice treated with MPTP. As mentioned above, MPTP causes Parkinson's-like symptoms by destroying dopaminergic neurons in the substantia nigra of the brain. Loss of dopaminergic neurons leads to the loss of the neurotransmitter dopamine and the onset of Parkinson's symptoms. In these tests, tyrosine hydroxylase (TH) levels were measured in the Striatum (St) (FIG. 28A) and TH+ dopaminergic neurons in the Substantia Nigra pars compacta (SNpc) were counted (FIG. 28B) to assess the recovery effect of compound BX treatment from chronic MPTP-induced damage.
# rats [4] = assay: MES test, rats p.o.; format: in vivo; conditions: Rattus norvegicus, po
# CYP-450 1A2 = CYP-450 1A2 (Homo sapiens, UniProt P05177); assay: In vitro human CYP-450 study, 1A2; format: in vitro ADME; conditions: human enzyme
# Chain of CYP-450 1A2 (P05177 whole entry): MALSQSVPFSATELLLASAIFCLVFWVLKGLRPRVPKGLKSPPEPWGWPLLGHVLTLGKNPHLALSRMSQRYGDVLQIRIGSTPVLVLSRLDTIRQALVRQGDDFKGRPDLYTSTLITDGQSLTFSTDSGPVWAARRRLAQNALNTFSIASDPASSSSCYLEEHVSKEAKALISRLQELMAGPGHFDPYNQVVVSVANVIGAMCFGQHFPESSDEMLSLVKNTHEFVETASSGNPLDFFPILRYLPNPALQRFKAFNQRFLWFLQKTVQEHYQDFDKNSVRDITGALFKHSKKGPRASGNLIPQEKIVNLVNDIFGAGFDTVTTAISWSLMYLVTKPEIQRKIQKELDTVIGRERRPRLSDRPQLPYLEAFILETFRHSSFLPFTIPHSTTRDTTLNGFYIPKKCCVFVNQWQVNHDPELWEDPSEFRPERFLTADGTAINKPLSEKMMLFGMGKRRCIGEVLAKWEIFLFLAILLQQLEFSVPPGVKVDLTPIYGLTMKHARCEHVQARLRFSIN
# Description: (§1) On the other hand, it is an inhibitor for 2C19, 2D6, 2A6 and 2C9.
# CYP-450 2C9 = CYP-450 2C9 (Homo sapiens, UniProt P11712); assay: In vitro human CYP-450 study, 2C9; format: in vitro ADME; conditions: human enzyme
# Chain of CYP-450 2C9 (P11712 whole entry): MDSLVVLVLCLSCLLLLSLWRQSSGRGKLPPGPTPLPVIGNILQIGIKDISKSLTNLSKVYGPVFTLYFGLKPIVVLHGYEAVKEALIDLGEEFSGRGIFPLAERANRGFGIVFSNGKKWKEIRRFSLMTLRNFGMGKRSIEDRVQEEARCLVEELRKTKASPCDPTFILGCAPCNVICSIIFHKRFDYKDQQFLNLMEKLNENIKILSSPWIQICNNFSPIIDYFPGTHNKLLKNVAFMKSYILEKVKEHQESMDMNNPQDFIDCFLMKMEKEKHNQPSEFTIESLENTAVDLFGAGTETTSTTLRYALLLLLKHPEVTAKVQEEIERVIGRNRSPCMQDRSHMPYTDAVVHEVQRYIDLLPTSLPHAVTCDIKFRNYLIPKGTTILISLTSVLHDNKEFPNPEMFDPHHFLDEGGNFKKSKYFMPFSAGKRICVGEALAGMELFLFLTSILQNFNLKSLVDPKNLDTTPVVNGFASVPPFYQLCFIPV
# Description: as §1
# NMDA receptors = assay: Electrophysiology, NMDA current; format: cell-based; conditions: at 100 μM [+glycine (1 μM)], holding potential −70 mV
# Description: (§2) The mechanisms of action of many currently marketed anticonvulsant drugs are not fully understood. Although numerous molecular targets exist wherein anticonvulsants may exert an effect, the final common pathway appears to be through modulation of voltage-gated and/or neurotransmitter-gated ion channels. Thus, the common link among the various proposed mechanisms involves the ability of an anticonvulsant to modulate ion channel function. Presently, a number of prototype anticonvulsants are thought to exert their action (at least in part) by reducing sustained, high-frequency repetitive firing of action potentials by modulating voltage-dependent sodium (Na+) channels. The effect of promising candidate substances on voltage-gated Na+ channels can be assessed using state-of-the-art electrophysiological techniques.
# CYP-450 2C19 = CYP-450 2C19 (Homo sapiens, UniProt P33261); assay: In vitro human CYP-450 study, 2C19; format: in vitro ADME; conditions: human enzyme
# Chain of CYP-450 2C19 (P33261 whole entry): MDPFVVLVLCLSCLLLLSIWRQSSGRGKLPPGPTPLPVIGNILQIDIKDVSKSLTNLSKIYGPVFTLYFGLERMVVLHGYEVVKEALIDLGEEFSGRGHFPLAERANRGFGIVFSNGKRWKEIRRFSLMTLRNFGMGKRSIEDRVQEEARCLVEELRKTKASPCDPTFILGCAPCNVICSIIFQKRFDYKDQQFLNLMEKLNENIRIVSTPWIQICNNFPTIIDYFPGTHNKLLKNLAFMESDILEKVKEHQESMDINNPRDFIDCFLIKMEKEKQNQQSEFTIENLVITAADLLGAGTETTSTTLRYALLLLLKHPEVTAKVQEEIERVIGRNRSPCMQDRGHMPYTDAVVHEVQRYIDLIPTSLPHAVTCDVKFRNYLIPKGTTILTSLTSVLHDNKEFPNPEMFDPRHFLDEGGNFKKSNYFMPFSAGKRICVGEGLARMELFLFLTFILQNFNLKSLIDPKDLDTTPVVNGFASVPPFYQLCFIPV
# Description: as §1
# GABA receptors = assay: Electrophysiology, GABA receptor currents; format: cell-based; conditions: at 100 μM, holding potential −70 mV
# Description: as §2
# rats [5] = assay: Gender Neutral test (kindled rats); format: in vivo
# CYP-450 2A6 = CYP-450 2A6 (Homo sapiens, UniProt P11509); assay: In vitro human CYP-450 study, 2A6; format: in vitro ADME; conditions: human enzyme
# Chain of CYP-450 2A6 (P11509 whole entry): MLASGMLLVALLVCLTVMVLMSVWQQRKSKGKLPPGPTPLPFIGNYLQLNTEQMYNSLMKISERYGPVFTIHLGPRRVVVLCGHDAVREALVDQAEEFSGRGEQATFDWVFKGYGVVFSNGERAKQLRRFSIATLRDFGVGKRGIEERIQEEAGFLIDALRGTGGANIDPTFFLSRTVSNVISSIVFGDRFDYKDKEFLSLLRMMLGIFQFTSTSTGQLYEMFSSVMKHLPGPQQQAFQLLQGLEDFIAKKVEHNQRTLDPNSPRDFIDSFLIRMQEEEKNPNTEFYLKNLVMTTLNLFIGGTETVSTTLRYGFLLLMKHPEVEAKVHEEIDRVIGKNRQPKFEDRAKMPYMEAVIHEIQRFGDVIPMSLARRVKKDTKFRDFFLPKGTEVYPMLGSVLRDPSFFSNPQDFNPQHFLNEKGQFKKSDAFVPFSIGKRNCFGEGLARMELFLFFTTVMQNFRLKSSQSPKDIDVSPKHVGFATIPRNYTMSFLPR
# Description: as §1
# sodium channels = assay: Electrophysiology, sodium currents; format: cell-based; conditions: at 100 μM, ±S.E.M., 8 cells
# Description: as §2
# The effects of compound H (at a concentration of 100 μM) on sodium currents were evaluated in electrophysiological studies at holding potentials of −60 and −90 mV (using 8 cells). […] By way of comparison, the % of control inhibited for typical sodium-channel-blocking drugs such as phenytoin or lamotrigine is about 50%. […]
structure (smiles),measurement,setting,value
"C[C@H](CC(N)=O)c1ccc(OC(F)(F)F)cc1 (single isomer, unassigned) [Compound BX, R-(−)-3-(4-Trifluoromethoxy-phenyl)butyramide]","Fold increase, Als2 (Amyotrophic lateral sclerosis 2 homolog)",[1],109.36
same,"Fold increase, Atp2b2 (ATPase, Ca++ transporting, plasma membrane 2)",[1],−5.85
same,"Fold increase, Bdnf (Brain-derived neurotrophic factor)",[1],2.58
same,"Fold increase, Cat (Catalase)",[1],82.03
same,"Fold increase, Gclc (Glutamate-cysteine ligase, catalytic subunit)",[1],5.79
same,"Fold increase, Htr2a (5-HT (serotonin) receptor 2A)",[1],−3.11
same,"Fold increase, Ldha (Lactate dehydrogenase A)",[1],−9.66
same,"Fold increase, Ntrk2 (Neurotrophic tyrosine kinase, receptor, type 2)",[1],−2.07
same,"Fold increase, P62630 (Aldehyde oxidase 1)",[1],2.1
same,"Fold increase, Prdx2 (Peroxiredoxin 2)",[1],9.66
same,"Fold increase, Psmb5 (Proteasome subunit, beta type 5)",[1],3.02
same,"Fold increase, Slc6a3 (Solute carrier family 6 (DAT), member 3)",[1],−5.59
same,"Fold increase, Snca (Alpha-Synuclein)",[1],−2.14
same,"Fold increase, Syngr3 (Synaptogyrin 3)",[1],2.25
same,"Fold increase, Syt1 (Synaptotagmin I)",[1],2.19
same,"Fold increase, Ubb (Ubiquitin B)",[1],3.23
same,"Fold increase, Ube2k (Ubiquitin-conjugating enzyme E2K)",[1],2.98
same,spatial learning and memory in the water maze task,rats [2],preserved spatial learning and memory
same,water maze learning curve in terms of latency,rats [2],much faster learning curve
same,rats with partial neuroprotection (CA3 and hilar neurons of DG preserved),hippocampal neurons,2
same,animals with complete neuroprotection of hippocampal neurons against SE-induced cell death,hippocampal neurons; rats,11/15
same,TH+ dopaminergic neurons in the Substantia Nigra pars compacta,[3],stimulated the regrowth of TH+ dopaminergic neurons
same,tyrosine hydroxylase (TH) levels in the Striatum,[3],induce recovery from MPTP-induced damage in striatum
"CC(CC(N)=O)c1ccc(OC(F)(F)F)cc1 (racemic) [Compound H, 3-[4-(trifluoromethoxy)-phenyl]butyramide]",ED50,rats [4],56.7 mg/kg
same,inhibition of CYP-450 1A2,CYP-450 1A2,either no or only a remote possibility of inhibiting
same,inhibition of CYP-450 2C9,CYP-450 2C9,inhibitor
same,NMDA current (enhancement),NMDA receptors,119±7 % of control
same,inhibition of CYP-450 2C19,CYP-450 2C19,inhibitor
same,GABA receptor response,GABA receptors,108±3 % of control
same,efficacy in the two genders,rats [5],equally efficacious in both genders
same,inhibition of CYP-450 2A6,CYP-450 2A6,inhibitor
same,sodium currents,sodium channels; holding potential −60 mV,91±1 % of control
same,sodium currents,sodium channels; holding potential −90 mV,98±1 % of control

# From patent US12486218B2, “Compounds advantageous in the treatment of central nervous system diseases and disorders” (AurimMed Pharma, Inc., priority 2008, dated 2025)
